Laboratory results published in patent publication US12187662B2, “FOXM1 inhibitor compositions and methods of using the same” (The Board of Trustees of the University of Illinois, priority 2018, dated 2025).
Entries after “also recorded” stand apart in the source; their conditions may differ.

How the values were obtained:
MCF7 xenograft tumors = assay: MCF7 breast cancer xenografts in ovariectomized NSG mice; format: in vivo, mouse; settings: 100 mg/kg s.c. daily
Method: For examination of the growth of ER-positive MCF7 xenograft tumors, female NSG mice were ovariectomized, and 2 weeks after ovariectomy, animals were supplemented with 0.36 mg E2-pellets (60-day release, Innovative Research of America) to support ER+ tumor growth. Cell suspensions of wild type MCF7 cells (1×10^6 cells/mouse) were injected subcutaneously (sc) in the right axial mammary gland and when tumors reached 100-150 mm^3 in size, mice were randomized and received compound or control vehicle (corn oil) by s.c. injection or oral gavage (PEG400/PVP/Tween/CMC as Veh) at the frequency indicated and tumor volume (length><width 2/2) was monitored over time.

DT22 cells = assay: Cell proliferation assay (WST-1), DT22; format: cell-based, human; settings: inhibition of cell proliferation; read-out: IC50 DT-22
Method: (§1) All cells were tested for mycoplasma using Real-Time PCR Mycoplasma Detection Kit (Akron Biotech, Boca Raton, FL).
(§2) All assays were performed in triplicate.

[1] = test system: FOXM1 target genes in MCF7 cells; assay: FOXM1 target gene expression by qRT-PCR, MCF7; format: cell-based, human; settings: MCF7, 24 h, at IC50 concentration
Method: (§3) RNA was extracted from cells and expression of different genes was monitored by qRT-PCR. Assays were run in triplicate. Values are mean±SEM. *, p<0.05; **, p<0.01; ***, p<0.001. RNA isolation and real-time PCR Total RNA was isolated using TRIzol (Invitrogen) and reverse transcribed using […] reverse transcriptase (New England BioLabs). Real-time PCR was performed using SYBRgreen PCR Master Mix (Roche) as described (Bergamaschi et al., Breast Cancer Res., 2014, 16:436). Relative mRNA levels of genes were normalized to the housekeeping gene 36B4, and fold change calculated relative to the vehicle treated samples. Results are the average±SD from at least two independent experiments carried out in triplicate. Primer sequences for the genes studied were obtained from the Harvard Primer Bank. Sequences are available on their website.

breast cancer cell lines = assay: Proliferation of breast cancer cell lines (panel, line not specified); format: cell-based, human
Method: as §1, §2

MCF10A cells = assay: Cell proliferation, MCF10A (low FOXM1); format: cell-based, human; settings: 6 days
Method: (§4) Cell lines and cell culture methods MCF7 and other breast cancer cell lines were obtained from the ATCC and were maintained and cultured as described (Bergamaschi et al., Breast Cancer Res., 2014, 16:436; Madak-Erdogan et al., Mol. Syst. Biol., 2013, 9:676; Zhao et al., Cancer Res., 2017, 77:5602-13). DT22 cells were derived from a human triple negative invasive ductal breast carcinoma and were grown in culture as described (Drews-Elger et al., Breast cancer research and treatment, 2014, 144:503-17). All cells were tested for mycoplasma using Real-Time PCR Mycoplasma Detection Kit (Akron Biotech, Boca Raton, FL).
(§5) Cell proliferation assay WST-1 assay (Roche, Basel, Switzerland) was used to quantify cell viability as described (Gong et al., Mol. Cell Endocrinol., 2016, 437:190-200). Absorbance was measured at 450 nm using a VICTOR X5 PerkinElmer 2030 Multilabel Plate Reader. All assays were performed in triplicate.

[2] = test system: MDA-MB-453 breast cancer cells; assay: Cell proliferation, MDA-MB-453; format: cell-based, human; settings: inhibition of cell proliferation
Method: as §4, §5

MCF7 cells = assay: Cell proliferation assay (WST-1), MCF7; format: cell-based, human; settings: inhibition of cell proliferation; read-out: IC50 MCF7
Method: as §1, §2

[3] = test system: DT22 triple negative human breast tumor xenografts; assay: DT22 triple negative breast tumor xenografts in NSG mice; format: in vivo, mouse
Method: In vivo breast cancer xenograft studies For examination of the growth of triple-negative DT22 breast tumors, intact female NOD/SCID-gamma (NSG) mice were used. DT-22 cells (1×10^6 cells/mouse) were injected s.c. into the right axial mammary gland. Mice received s.c. injection or oral gavage daily or every second or third day, as indicated, with vehicle or FOXM1 inhibitor compound, and tumor growth was monitored over time.

[4] = Pharmacokinetic studies in mice after single s.c. or oral dose; settings: mice
Method: For s.c. injection, each compound was dissolved in DMSO and then mixed with corn oil for a total injection volume of 100 μL (10% DSMO+90% corn oil) per mouse. For oral gavage, compounds were administered in a 200 μL formulation of 9/0.5/0.5/90 parts of PEG400/Tween80/Povidone/0.5% Carboxymethylcellulose. […] Compounds were quantified by LC-MS/MS at the University of Illinois Metabolomics Core Facility. The data were fitted to a non-compartment model.

[5] = test system: FOXM1 target genes in DT22 cells; assay: FOXM1 target gene expression by qRT-PCR, DT22; format: cell-based, human; settings: DT22, 24 h, at IC50 concentration
From the text: as §3, with “Real-time PCR was performed using SYBRgreen PCR Master Mix (Roche) as described (Bergamaschi et al., Breast Cancer Res., 2014, 16:436).” left out

FOXM1 protein [6] = target: T1, FOXM1 protein (Homo sapiens, UniProt Q08050); assay: Competitive binding of inhibitors to FOXM1 by tr-FRET (Fl-NB-72 probe); settings: tr-FRET competition with Fl-NB-72; Ki calculated from IC50 (Cheng-Prusoff)
T1 construct: a terbium donor was attached to purified full length FOXM1 through a streptavidin-biotin linker
T1 sequence (Q08050 1-763): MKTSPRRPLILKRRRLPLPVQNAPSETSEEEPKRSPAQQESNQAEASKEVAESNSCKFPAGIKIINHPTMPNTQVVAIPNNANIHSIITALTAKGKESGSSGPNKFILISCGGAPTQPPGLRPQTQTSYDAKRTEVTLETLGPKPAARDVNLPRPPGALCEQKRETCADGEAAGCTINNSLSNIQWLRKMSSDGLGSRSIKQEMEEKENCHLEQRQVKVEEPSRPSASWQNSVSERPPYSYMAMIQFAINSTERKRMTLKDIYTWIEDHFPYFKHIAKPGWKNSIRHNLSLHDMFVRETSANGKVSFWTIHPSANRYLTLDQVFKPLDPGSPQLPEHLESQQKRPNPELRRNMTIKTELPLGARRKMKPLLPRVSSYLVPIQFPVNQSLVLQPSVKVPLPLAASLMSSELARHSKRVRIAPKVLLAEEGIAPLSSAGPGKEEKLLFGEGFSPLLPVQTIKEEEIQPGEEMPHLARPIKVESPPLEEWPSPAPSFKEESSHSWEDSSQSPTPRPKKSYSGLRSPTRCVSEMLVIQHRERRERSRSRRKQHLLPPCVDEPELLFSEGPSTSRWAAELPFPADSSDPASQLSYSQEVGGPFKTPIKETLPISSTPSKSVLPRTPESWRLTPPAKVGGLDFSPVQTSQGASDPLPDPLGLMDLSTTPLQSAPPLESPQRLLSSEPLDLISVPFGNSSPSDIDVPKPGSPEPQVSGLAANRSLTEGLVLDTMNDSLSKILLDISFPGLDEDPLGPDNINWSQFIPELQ
Method: Competitive binding assays of FOXM1 inhibitor binding to FOXM1 by tr-FRET were conducted. All tr-FRET experiments used FRET buffer (20 mM Tris, pH 7.5, 50 mM NaCl, 0.01% NP-40 detergent, 10% glycerol) with 0.3 mg/ml ovalbumin and 0.1 mM butylated hydroxy-anisole added fresh daily. Solutions of the protein, fluorescent probe and inhibitor dilutions were prepared at 3× the final concentrations, the final dilution taking place as they were mixed together on the microtiter plate.
Final concentrations were 10^-5M to 10^-9M, with the last point being buffer only, no inhibitor. Fluorescein-NB-72 (Fl-NB-72) was prepared at 1 mM in DMF and stored at −20° C. It was diluted into plain FRET buffer to give 100 nM in the assay.
Incubations were done in duplicate on black Molecular Devices 96-well microtiter plates. […] To this were added 5 μL of the inhibitor dilutions, mixed and incubated, in the dark, at room temperature, for 1 h. […] Diffusion-enhanced FRET was determined by a parallel incubation without biotin-FOXM1 and subtracted as a background signal. Graphs were prepared using Graph Pad/Prism 4.

FOXM1 protein [7] = target: T1, FOXM1 protein; assay: Direct binding of Fl-NB-72 to FOXM1 by tr-FRET; settings: direct tr-FRET titration
Method: Direct binding experiments for determination of Kd for Fl-NB-72. […] The Biotin-FOXM1 was diluted to a concentration of 3×(5 nM+1.25 nM SaTb). 5 μL of each of these were mixed on a black Molecular Devices microtiter plate with 5 μL of FRET buffer, so that each component was diluted 3×. Each point was prepared in duplicate, mixed, and incubated for 1 h at room temperature, in the dark. tr-FRET was measured on a Victor X5 microtiter plate reader with settings as given above.

IC50 (breast cancer cell lines; cell line not specified or several lines, read-out: IC50 for inhibition of proliferation of breast cancer cell lines) [nM]	IC50 [2] [nM]	IC50 (MCF7 cells) [nM]	PK p.o. AUC0-48 ([4]; 40 mg/kg p.o.) [µM·h]	PK p.o. t1/2 ([4]; 40 mg/kg p.o.) [h]	PK s.c. AUC0-48 ([4]; 40 mg/kg s.c.) [µM·h]	PK s.c. t1/2 ([4]; 40 mg/kg s.c.) [h]	Ki (FOXM1 protein [6]) [nM]	Kd (FOXM1 protein [7]) [nM]	SMILES	Growth of MCF7 E2-treated xenograft tumors (MCF7 xenograft tumors)	IC50 (DT22 cells) [nM]	Expression of ATF3 (gene suppressed by FOXM1) [1]	Expression of FOXM1 stimulated target genes (FOXM1C, AURKB, CCNB1, PLK1) [1]	Reduced potency in suppression of cell proliferation (versus salts) (breast cancer cell lines; cells in culture) [fold]	Concentration for 50% suppression of proliferation in MCF10A versus cells with high and intermediate FOXM1 (MCF10A cells)	Tumor suppression at lower doses ([3]; 20 or 40 mg/kg (data not shown))	Growth of DT22 tumor xenografts ([3]; daily s.c. or oral, 100 mg/kg)	Expression of ATF3 (gene suppressed by FOXM1) [5]	Expression of FOXM1 stimulated target genes (FOXM1C, AURKB, CCNB1, PLK1) [5]
2000 to 10000	3000 to 5000	3000	35.7	16.6	34.7	26.7	230	–	Clc1ccc(C(=C2C3CC4CC(C3)CC2C4)c2ccc(OCCCCCCN3CCCC3)cc2)cc1 [NB-55, 1-(6-(4-((-((Z)-((5S,7S)-Adamantan-2-ylidene)(4-chlorophenyl)methyl)phenoxy)hexyl)pyrrolidine]	reduces; also recorded: reduced the growth	6000	increased	significantly reduced	5	five times higher	only marginally effective	effective tumor suppression; also recorded: very effectively suppressed	increased	significantly reduced
–	–	–	–	–	–	–	–	23	O=C(NCCCCCCOc1ccc(C(c2ccc(OCCCCCCN3CCCCCC3)cc2)=C2C3C[C@H]4C[C@@H](C3)C[C@H]2C4)cc1)c1ccc(-c2c3ccc(=O)cc-3oc3cc(O)ccc23)c(C(=O)O)c1 [Fl-NB-72, 5-((6-(4-((L′)-((5r,7r)-adamantan-2-ylidene)(4-((6-(azepan-1-yl)hexyl)oxy)phenyl)methyl)phenoxy)hexyl)carbamoyl)-2-(6-hydroxy-3-oxo-3H-xanthen-9-yl)benzoic acid]	–	–	–	–	–	–	–	–	–	–
